# System: ryanodine receptors
compound,measurement,setting,value
"O=C1CN(/N=C/c2ccc(-c3ccc([N+](=O)[O-])cc3)o2)C(O)=N1 [dantrolene, Dantrolene]",caffeine-induced Ca++ release,"1.5 mM caffeine + 20 mM dantrolene, 5 minutes dantrolene pretreatment, retinal ganglion cells, FIG. 1 trace 2",blocked
same,caffeine effect after washout,"washout of dantrolene with 12.5 mM caffeine alone, FIG. 1 trace 3",recovered partially

# Source: patent US20070196856A1, “Methods of determining activity of ryanodine receptor modulators” (Allergan, Inc., priority 2006, published 2007)
